Results as given in patent US8536187B2 (Gilead Sciences, Inc., priority 2008, dated 2013).

Columns and labels:
[1] = system: HCV replicon in human hepatoma Huh-7 cell line; experiment: Anti-HCV replicon assay, EC50 (luciferase luminescence); format: cell-based; conditions: Hepatitis C virus, Huh-7, 72 h
Method in brief: (§1)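 Cytotoxicity (CC50) read by CellTiter-Glo luminescence after 10 min, and antiviral EC50 by luciferase signal after 30 min lysis with substrate, both at room temperature. Preceding step: 3-day exposure of 6000 Huh-7 HCV replicon cells per well to compound dilution series at 37° C, 5% CO2, in 0.5% DMSO.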

[2] = CC50 assay (CellTiter-Glo) in Huh-7 HCV replicon cells; format: cell-based; conditions: human
Method in brief: as §1

SMILES	EC50 [1] [µM]	CC50 at 3 days ([2]; Table 1, 3 days incubation) [µM]	CC50 at 3 days ([2]; Table 2, 3 days incubation) [µM]
CS(=O)(=O)c1cccc(-c2ccc3nc(NCc4ccc(S(N)(=O)=O)cc4)nc(NCC(F)(F)F)c3n2)c1 [Example 15, 4-{[6-(3-Methanesulfonyl-phenyl)-4-(2,2,2-trifluoro-ethylamino)-pyrido[3,2-d]pyrimidin-2-ylamino]-methyl}-benzenesulfonamide]	< 0.1	> 25	
COc1ccc(-c2ccc3nc(NCc4ccc(-n5cccn5)cc4)nc(NCC(F)(F)F)c3n2)cc1S(N)(=O)=O [Example 236, 5-(2-(4-(1H-pyrazol-1-yl)benzylamino)-4-(2,2,2-trifluoroethylamino)pyrido [3,2-d]pyrimidin-6-yl)-2-methoxybenzenesulfonamide]	< 0.1		1 to 10
Fc1ccc(-c2ccc3nc(NCc4cc(F)cc(-n5cncn5)c4)nc(NC4(C(F)(F)F)CC4)c3n2)cc1 [Example 128, N^2-(3-fluoro-5-(1H-1,2,4-triazol-1-yl)benzyl)-6-(4-fluorophenyl)-N^4-(1-(trifluoromethyl)cyclopropyl) pyrido[3,2-d]pyrimidine-2,4-diamine]	0.25 to 2		> 10
COc1ccc(-c2ccc3nc(N[C@H](C)c4ccc(-n5cncn5)cc4)nc(NCC(F)(F)F)c3n2)cc1S(C)(=O)=O [Example 150, N^2-((R)-1-(4-(1H-1,2,4-triazol-1-yl)phenyl)ethyl)-6-(4-methoxy-3-(methylsulfonyl)phenyl)-N^4-(2,2,2-trifluoroethyl) pyrido[3,2-d]pyrimidine-2,4-diamine]	< 0.1		1 to 10
COc1ccc(-c2ccc3nc(NCc4cccc(F)c4)nc(NC4(C(F)(F)F)CC4)c3n2)cc1S(C)(=O)=O [Example 105, N^2-(3-fluorobenzyl)-6-(4-methoxy-3-(methylsulfonyl)phenyl)-N^4-(1-(trifluoromethyl)cyclopropyl)pyrido[3,2-d] pyrimidine-2,4-diamine]	< 0.1		> 10
N#Cc1cc(F)ccc1-c1ccc2nc(NCc3cc(Cl)cc(S(N)(=O)=O)c3)nc(NC3(C(F)(F)F)CC3)c2n1 [Example 100, 3-chloro-5-((6-(2-cyano-4-fluorophenyl)-4-(1-(trifluoromethyl)cyclopropyl-amino)pyrido[3,2-d]pyrimidin-2-ylamino)methyl)benzene-sulfonamide]	< 0.1		1 to 10
Cc1nccn1-c1cccc(CNc2nc(NC3(C(F)(F)F)CC3)c3nc(-c4ccc(F)cc4)ccc3n2)c1 [Example 53, N^2-(3-(2-methyl-1H-imidazol-1-yl)benzyl)-6-(4-fluorophenyl)-N^4-(1-(trifluoromethyl)cyclopropyl)pyrido[3,2-d] pyrimidine-2,4-diamine]	0.25 to 2		1 to 10
NS(=O)(=O)c1cc(Cl)cc(CNc2nc(NC3(C(F)(F)F)CC3)c3nc(-c4ccc(F)cc4)ccc3n2)c1 [Example 27, 3-chloro-5-{[6-(4-fluorophenyl)-4-(1-trifluoromethyl-cyclopropylamino)-pyrido[3,2-d]pyrimidin-2-ylamino]-methyl}-benzenesulfonamide]	0.1 to 0.25		> 10
FC(F)(F)C1(Nc2nc(NCc3ccc(-n4cncn4)cc3)nc3ccc(-c4ccc(NC5CC5)nc4)nc23)CC1 [Example 127, N^2-(4-(1H-1,2,4-triazol-1-yl)benzyl)-6-(6-(cyclopropylamino)pyridin-3-yl)-N^4-(1-(trifluoromethyl)cyclopropyl)pyrido[3,2-d] pyrimidine-2,4-diamine]	< 0.1		1 to 10
C[C@@H](Nc1nc(NC2(C(F)(F)F)CC2)c2nc(-c3ccc(F)nc3)ccc2n1)c1ccc(S(N)(=O)=O)cc1 [Example 79, 4-((R)-1-(6-(6-fluoropyridin-3-yl)-4-(1-(trifluoromethyl)cyclopropylamino)pyrido[3,2-d]pyrimidin-2-ylamino)ethyl) benzenesulfonamide]	< 0.1		> 10
NS(=O)(=O)c1ccc(CNc2nc(NC3(C(F)(F)F)CC3)c3nc(C#CC4CC4)ccc3n2)cc1 [Example 92, 4-((6-(2-cyclopropylethynyl)-4-(1-(trifluoromethyl)cyclopropyl-amino)pyrido[3,2-d]pyrimidin-2-ylamino)methyl)benzene-sulfonamide]	< 0.1		1 to 10
CC(C)(C)NS(=O)(=O)c1cc(F)cc(CNc2nc(NC3(C(F)(F)F)CC3)c3nc(-c4ccc(Cl)c(S(C)(=O)=O)c4)ccc3n2)c1 [Example 38, N-tert-butyl-3-((6-(4-chloro-3-(methylsulfonyl)phenyl)-4-(1-(trifluoromethyl)cyclopropyl-amino)pyrido[3,2-d]pyrimidin-2-ylamino)methyl)-5-fluorobenzenesulfonamide]	< 0.1		> 10
FC(F)(F)CNc1nc(NCc2ccc(-n3cncn3)cc2)nc2ccc(-c3ccc(OC4CC4)nc3)nc12 [Example 246, N^2-(4-(1H-1,2,4-triazol-1-yl)benzyl)-6-(6-cyclopropoxy-pyridin-3-yl)-N^4-(2,2,2-trifluoroethyl)pyrido[3,2-d] pyrimidine-2,4-diamine]	< 0.1		> 10
NS(=O)(=O)c1cc(Cl)cc(CNc2nc(NCC(F)(F)F)c3nc(C#CC4CC4)ccc3n2)c1 [Example 280, 3-chloro-5-((6-(2-cyclopropyl-ethynyl)-4-(2,2,2-trifluoro-ethylamino)pyrido[3,2-d]pyrimidin-2-ylamino)methyl) benzenesulfonamide]	< 0.1		> 10
CS(=O)(=O)c1cccc(-c2ccc3nc(NCc4ccc(-n5cncn5)cc4)nc(NCC(F)(F)Cl)c3n2)c1 [Example 196, N^2-(4-(1H-1,2,4-triazol-1-yl)benzyl)-N^4-(2-chloro-2,2-difluoroethyl)-6-(3-(methylsulfonyl)phenyl)pyrido [3,2-d]pyrimidine-2,4-diamine]	< 0.1		> 10
COc1ccc(-c2ccc3nc(NCCS(N)(=O)=O)nc(NCC(F)(F)F)c3n2)cc1S(C)(=O)=O [Example 172, 2-(6-(4-methoxy-3-(methylsulfonyl)phenyl)-4-(2,2,2-trifluoroethylamino)pyrido[3,2-d]pyrimidin-2-ylamino)ethanesulfonamide]	0.1 to 0.25		> 10
C[C@@H](Nc1nc(NCC(F)(F)F)c2nc(C#CC3CC3)ccc2n1)c1ccc(S(N)(=O)=O)cc1 [Example 275, (R)-4-(1-(6-(2-cyclopropyl-ethynyl)-4-(2,2,2-trifluoro-ethylamino)pyrido[3,2-d]pyrimidin-2-ylamino)ethyl) benzenesulfonamide]	< 0.1		> 10
CS(=O)(=O)c1cccc(CNc2nc(NC3(C(F)(F)F)CC3)c3nc(-c4ccc(N5CCNC5=O)cc4)ccc3n2)c1 [Example 111, 1-(4-(2-(3-(methylsulfonyl)benzylamino)-4-(1-(trifluoromethyl)cyclopropyl-amino)pyrido[3,2-d]pyrimidin-6-yl)phenyl)imidazolidin-2-one]	< 0.1		1 to 10
Cc1ccc(-c2ccc3nc(NCc4cccc(S(C)(=O)=O)c4)nc(NC4(C(F)(F)F)CC4)c3n2)cc1S(C)(=O)=O [Example 34, N^2-(3-(methylsulfonyl)benzyl)-6-(4-methyl-3-(methylsulfonyl)phenyl)-N^4-(1-(trifluoromethyl)cyclopropyl) pyrido[3,2-d]pyrimidine-2,4-diamine]	< 0.1		1 to 10
